Measurements published in patent US5643868A, “Method of treating or preventing type 1 diabetes by oral administration of insulin” (Autoimmune, Inc., priority 1995, dated 1997).
Several values for one entry are separate records, joined by “and”; a condition that tells them apart may be missing. Identical values can stand only once. Entries after “also recorded” stand apart in the source; their conditions may differ.

Legend:
Format in all cases: in vivo
NOD mice [1] = experiment: Glucose post oral insulin in fasting 7 week NOD mice (Example 2); settings: for blood glucose over the next 24 hours: animals in fasting state; for blood glucose after feeding: fasting 7 week old mice
Protocol: In order to determine whether any endocrinologic (i.e. direct lowering of blood sugar) effects occurred following the feeding of insulin, 7 week old NOD mice (5 mice per group) were fed 1 mg of porcine insulin or 1 mg of myelin basic protein (obtained from Pel Freez, Rogers, Ark.) as a control protein. Blood glucose was then measured over the next 24 hour period. As a positive control, a separate group of animals were injected subcutaneously with 20 micrograms of Porcine insulin. All animals were kept in the fasting state.

[2] = test system: NOD (non-obese diabetic) mice; experiment: Effect of feeding porcine insulin on spontaneous diabetes in NOD mice (Example 1)
Source text: NOD (non-obese diabetic mice) were obtained from Taconic Laboratories (Germantown, Mass.) at 4 weeks of age. There were a total of 30 animals in each of the groups mentioned below at the beginning of the experiment. At 41/2 weeks of age, animals were orally administered Porcine insulin (Novo Laboratories, Danbury, Conn.). Each animal received two treatments orally twice a week until 9 weeks of age. The mice were fed either saline (control) or 10 micrograms, 100 micrograms, or 1 milligram of Porcine insulin. The animals were fed (gavaged) with an 18 gauge ball-point needle (Popper and Sons, Inc., New Hyde Park, N.Y.). Beginning at 10 weeks the animals were then fed once a week for a total of 33 weeks. Beginning at 12 weeks the urine was tested weekly for the presence of glucose using Glucosuria test tape (Eli Lilly, Indianapolis, Ind.). If an animal tested 3+ or higher on the glucose urine test, a serum sample was taken and blood glucose measured using a glucose analyzer (Beckman). If the blood glucose was 220 or higher, the animals were classified as diabetic and then sacrificed.

NOD mice [3] = experiment: Treatment of initial stages of diabetes in NOD mice (Example 5); settings: 0 to 1 mg insulin, oral and aerosol, hyperglycemic mice from weeks 12-20 of age
Protocol: Insulin (0 to 1 mg as in Examples 1 and 2) will be administered to NOD mice which are suffering from hyperglycemia in an oral and aerosol form. The treatments will begin by weeks 12-20 of age, by which the serum glucose levels are at hyperglycemic concentrations in a certain percentage of animals prior to onset of diabetes.

NOD mice [4] = experiment: Preliminary experiments: insulitis in NOD mice fed insulin; settings: fed 1 mg of insulin; data not shown
Source text: Therefore, oral administration of insulin to NOD mice appeared to be affecting the infiltration of immune system cells into the pancreas and thus halting disease progression by preserving beta cell function.

NOD mice [5] = experiment: Effect of aerosol administration of insulin on diabetes in NOD mice (Example 4); settings: 0 to 1 mg insulin in aerosol form by nebulizer
Protocol: Insulin (0 to 1 mg as in Examples 1 and 2) will be administered to NOD mice as described above in Examples 1 and 2 except in aerosol form by nebulizer.

Row | Substance | endocrinologic (metabolic) effects of feeding (NOD mice [1]; 1 mg fed orally) | blood glucose over the next 24 hours (NOD mice [1]; 1 mg fed orally) | blood glucose after feeding (NOD mice [1]; 1 mg fed orally) | decrease in the glucose level (NOD mice [1]; 20 micrograms porcine insulin injected subcutaneously (positive control), fasting) | period over which the drop in glucose persisted (NOD mice [1]; 20 micrograms porcine insulin subcutaneously, fasting) [h] | development of diabetes ([2]; 1 mg porcine insulin fed orally (gavage), diabetic = blood glucose 220 or higher) | development of diabetes ([2]; 10 micrograms porcine insulin fed orally) | incidence of diabetes, all oral doses tested ([2]; 10 micrograms, 100 micrograms, 1 mg oral, dose-dependent) | development of diabetes ([2]; 100 micrograms porcine insulin fed orally) | blood sugar of individual animals which developed diabetes ([2]; fed 10 micrograms of insulin) | blood sugar of individual animals that became diabetic ([2]; fed 100 micrograms of insulin) | treated animals that failed to develop diabetes ([2]; highest dose of oral insulin (1 mg)) [%] | beta cell function (NOD mice [3]) | serum glucose concentrations (NOD mice [3]) | inflammatory immune system cells surrounding the pancreas (insulitis) vs PBS-fed mice (NOD mice [4]) | prevention of symptoms (hyperglycemia) of Type 1 diabetes (NOD mice [5])
1 | insulin | no endocrinologic (metabolic) effects | gradual decrease in blood glucose | no drop in the blood glucose | approximately 80 mg % | 4 | none of the mice went on to develop diabetes; also recorded: no diabetes developed in any of the animals; also recorded: None of the animals developed diabetes | diabetes developed | lower incidence of diabetes at all doses; also recorded: reduced the numbers of these mice which subsequently went on to develop diabetes | diabetes developed | 330 mg/dL and 420 mg/dL and 315 mg/dL and 459 mg/dL and 520 mg/dL and 487 mg/dL | 500 mg/dL and 290 mg/dL and 600 mg/dL and 450 mg/dL | 100 | preservation of beta cell function | reduction in serum glucose concentrations to near normal levels | fewer inflammatory immune system cells surrounding the pancreas | effective in preventing the manifestation of symptoms
2 | myelin basic protein | – | gradual decrease in blood glucose | no drop in the blood glucose | – | – | – | – | – | – | – | – | – | – | – | – | –
